{"source": "paper PMC2594009", "about": "(Structure (London, England : 1993), 2008)", "key": {"L26F AM2": {"system": "L26F AM2", "assay_type": "cell-based, influenza A virus", "details": "pH 5.5"}, "S31N AM2": {"system": "S31N AM2", "assay_type": "cell-based, influenza A virus", "details": "pH 5.5"}}, "note": "“And” between values parts separate entries of the source, which are not always exact repeats. Identical values can stand only once. “Also recorded” adds a separate entry of the source.", "data": [{"compound": "NC12CC3CC(CC(C3)C1)C2", "note": "[amantadine]", "values": [{"measurement": "inhibition of the inward current", "setting": "L26F AM2", "value": "47% and 46.8 ± 0.7%"}, {"measurement": "reversibility of inhibition after removal of the drug", "setting": "L26F AM2", "value": "reversibly inhibited; also recorded: readily reversible"}, {"measurement": "inhibition of the inward current", "setting": "S31N AM2", "value": "30% and 30.7 ± 1.8%"}, {"measurement": "reversibility of inhibition after removal of the drug", "setting": "S31N AM2", "value": "immediately reversed; also recorded: highly reversible"}]}]}
